# Experimental data: patent US20210038579A1, “Treatment Of Patients With Classic Fabry Disease” (Amicus Therapeutics, Inc., priority 2018, published 2021)
# Residue numbers refer to the chain shown, from its start.
# Tests used:
# [1] = molecular target: T1, α-Gal A mutant form p.Ile317Thr (c.950 T > C) (Homo sapiens, UniProt P06280, I317T); assay: HEK assay: α-Gal A activity in HEK-293 cell lysate with migalastat; format: cell-based
# T1 construct: expressed in transfected cells; host or cells: HEK-293
# T1 sequence (P06280 32-429 I317T): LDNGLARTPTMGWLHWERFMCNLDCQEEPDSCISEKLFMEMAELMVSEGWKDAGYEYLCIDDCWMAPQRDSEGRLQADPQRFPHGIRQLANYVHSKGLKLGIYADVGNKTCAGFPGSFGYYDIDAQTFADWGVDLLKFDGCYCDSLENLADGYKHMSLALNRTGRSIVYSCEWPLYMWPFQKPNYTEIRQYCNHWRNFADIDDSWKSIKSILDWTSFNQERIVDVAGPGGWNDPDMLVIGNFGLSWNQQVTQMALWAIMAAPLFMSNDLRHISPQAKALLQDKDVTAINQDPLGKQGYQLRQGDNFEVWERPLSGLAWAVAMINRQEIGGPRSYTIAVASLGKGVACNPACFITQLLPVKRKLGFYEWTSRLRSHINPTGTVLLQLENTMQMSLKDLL
# How it was run: (§1)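 Each disease-causing α-Gal A variant, expressed transiently in HEK-293 cells, was treated plus or minus migalastat from 17 nM up to 1 mM during 4 to 5 days; lysates were assayed for α-Gal A using 4-MU-α-Gal fluorescence or western blotting.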
# [2] = molecular target: T2, α-Gal A mutant form p.Asp264Tyr (c.790 G > T) (Homo sapiens, UniProt P06280, D264Y); assay: as above; format: cell-based
# T2 construct: expressed in transfected cells; host or cells: HEK-293
# T2 sequence (P06280 32-429 D264Y): T1 sequence (P06280 32-429 I317T) with D233Y, T286I
# How it was run: as §1
# [3] = molecular target: T3, α-Gal A mutant form p.Ile253Thr (c.758 T > C) (Homo sapiens, UniProt P06280, I253T); assay: as above; format: cell-based
# T3 construct: expressed in transfected cells; host or cells: HEK-293
# T3 sequence (P06280 32-429 I253T): T1 sequence (P06280 32-429 I317T) with I222T, T286I
# How it was run: as §1
# [4] = molecular target: T4, α-Gal A mutant form p.Phe 295Cys (c.884 T > G) (Homo sapiens, UniProt P06280, F295C); assay: as above; format: cell-based
# T4 construct: expressed in transfected cells; host or cells: HEK-293
# T4 sequence (P06280 32-429 F295C): T1 sequence (P06280 32-429 I317T) with F264C, T286I
# How it was run: as §1
# [5] = Phase 3 study, ERT-naïve Fabry patients: Gastrointestinal Symptoms Rating Scale for Diarrhea (GSRS-D); format: in vivo, human; conditions: for mean change in GSRS-D: total amenable patient population
# Description: Patient Enrollment. […] Study Design. […] Patient-Reported Outcomes. Patient-reported outcomes were assessed using the Gastrointestinal-Symptoms-Rating-Scale (GSRS), Short Form-36v2TM and Brief-Pain-Inventory-Pain-Severity-Component. For all outcomes except GL-3 inclusions per kidney interstitial capillary, data are pooled for patients within phenotype subgroups regardless of treatment allocation for the first six months (migalastat or placebo).
# [6] = Phase 3 study, ERT-naïve Fabry patients: echocardiography (LVMi); format: in vivo, human; conditions: for mean (SD) change in LVMi: baseline (or month 6) to month 24; for LVMi change: after 24 months of treatment
# Description: Patient Enrollment. […] Study Design. […] Echocardiography. LVMi, left posterior wall thickness, diastolic, interventricular septum thickness, diastolic and other parameters were assessed through blinded, centralized evaluation. For all outcomes except GL-3 inclusions per kidney interstitial capillary, data are pooled for patients within phenotype subgroups regardless of treatment allocation for the first six months (migalastat or placebo).
# [7] = +10 μM migalastat, HEK-293 cell lysate, mean ± SEM, n = 20
# [8] = HEK293, 10 μM migalastat minus baseline, read-out: Absolute increase at 10 μM (% WT)
structure (smiles),measurement,setting,value
OC[C@H]1NC[C@H](O)[C@@H](O)[C@H]1O [migalastat],α-Gal A activity at 10 μM (fold over baseline),[1]; 10 μM migalastat,3.40 fold over baseline
same,+Migalastat α-Gal A activity,[1]; [7],7812 ± 530 nmol/mg/h
same,+Migalastat α-Gal A activity % WT,[1]; [7],23.6 ± 1.0 % WT
same,activation at 10 µM,[1]; [8],17%
same,α-Gal A activity at 10 μM (fold over baseline),[2]; 10 μM migalastat,12.89 fold over baseline
same,+Migalastat α-Gal A activity,[2]; [7],1842 ± 100 nmol/mg/h
same,+Migalastat α-Gal A activity % WT,[2]; [7],6.2 ± 0.3 % WT
same,activation at 10 µM,[2]; [8],5.7%
same,α-Gal A activity at 10 μM (fold over baseline),[3]; 10 μM migalastat,2.07 fold over baseline
same,+Migalastat α-Gal A activity,[3]; [7],23417 ± 1077 nmol/mg/h
same,+Migalastat α-Gal A activity % WT,[3]; [7],80.2 ± 5.9 % WT
same,activation at 10 µM,[3]; [8],41.3%
same,α-Gal A activity at 10 μM (fold over baseline),[4]; 10 μM migalastat,4.22 fold over baseline
same,+Migalastat α-Gal A activity,[4]; [7],5051 ± 190 nmol/mg/h
same,+Migalastat α-Gal A activity % WT,[4]; [7],14.5 ± 0.6 % WT
same,activation at 10 µM,[4]; [8],11.1%
same,classic male patients with diarrhea at baseline achieving MCID reduction of 0.33 in GSRS-D,"[5]; 7 of the 8 patients, by 24 months",88%
same,mean (SD) change from baseline (or month 6) in diarrhea symptoms (GSRS-D),"[5]; classic male patients, by 24 months",−0.9 (1.75)
same,mean (SD) change in GSRS-D,"[5]; other patients, month 24",−0.5 (1.01)
same,mean change in GSRS-D,[5]; month 6,−0.3
same,mean change in GSRS-D,[5]; month 24,−0.5
same,classic male patients with data reporting a reduction in LVMi,"[6]; classic male patients, age range 16-61 years",7/8
same,mean (SD) change in LVMi,[6]; classic males,−16.7 (18.64) g/m^2
same,mean (SD) change in LVMi,[6]; other patients,−3.2 (18.66) g/m^2
same,LVMi change,[6]; overall migalastat-treated population,−7.7 g/m^2
same,LVMi change,[6]; patients with LVH,−18.6 g/m^2
